Data as given in patent publication US11505558B1, “Antiviral heterocyclic compounds” (Enanta Pharmaceuticals, Inc., priority 2019, dated 2022).

Each compound was assayed on genotype A, "Long" strain RSV (assay: RSV-A assay (CPE, ATPlite readout in Hep-2 cells)). Conditions: human respiratory syncytial virus, HEp-2, Hep-2 cells, genotype A "Long" strain RSV, MOI 0.1; read-out: Human RSV-A (“Long” strain) EC50.
Assay type: cell-based
From the text: Hep-2 cells, (originally derived from tumors grown in irradiated-cortisonised weanling rats that had been injected with epidermoid carcinoma tissue from a person's larynx, but later found to be indistinguishable from HeLa cells by PCR DNA analysis), were used for the culturing of genotype A, “Long” strain RSV. Flasks were inoculated with RSV and viral stocks were collected once cytopathic effect (CPE) was greater than […]. Viral stocks in […] sucrose media were snap frozen using liquid nitrogen to increase viral stability. Viral stock titers were quantified by tissue culture infectious dose 50% (TCID50) using 8,000 cells per well and 3-fold viral dilutions across a 96-well plate, cultured for 4 days. Viral stock titers were also quantified by a plaque forming unit assay, as described elsewhere.
Following extensive parameter testing, the final assay is run as follows: Hep-2 cells are seeded into the inner 60 wells of a 96-well plate at 8,000 cells per well in a volume of 50 μL using Growth Media (DMEM without phenol red, 1% L-Glut, 1% Penn/Strep, 1% nonessential amino acids, 10% heat-inactivated FBS). 2-fold serial dilutions of control and test compounds are added to the wells in duplicate in a total volume of 25 μL. Viral stock is then added to the wells at a multiplicity of infection (MOI) of 0.1 in a volume of 25 μL, bringing the total volume of each well to 100 μL. The MOI is calculated using the PFU/mL, or TCID50 if unavailable. Each 96-well plate has a control column of 6 wells with cells and virus but no compound (negative control, max CPE), a column with cells but no compound or virus (positive control, minimum CPE), and a column with no cells or virus or compound (background plate/reagent control). The control wells with cells but no virus are given an additional 25 μL of growth media containing an equal quantity of sucrose as those wells receiving the viral stock in order to keep consistent in media and volume conditions. The outer wells of the plate are filled with 125 μL of moat media (DMEM, 1% Penn/Strep) to act as a thermal and evaporative moat around the test wells. Following a 5-day incubation period, the plates are read using ATPlite (50 uL added per well), which quantifies the amount of ATP (a measure of cell health) present in each well. Assay plates are read using the Envision luminometer. […] EC50 ranges are as follows: A<0.2 μM; B>0.2 μM.
For `Cc1ncc(C(=O)Nc2cc(C(=O)NC[C@](O)(c3cc4c(c(-c5ccc(F)cc5)n3)OC[C@]4(C)C(N)=O)C(F)(F)F)cc3cccnc23)[nH]1` [Example 402], the EC50 was less than 200 nM. Compound `C[C@]1(C(N)=O)COc2c1cc([C@@](O)(CNC(=O)c1cc(-c3ccncc3)c3ncccc3c1)C(F)(F)F)nc2-c1ccc(F)cc1` [Example 351] has an EC50 of less than 200 nM. `COc1ccc2cc(C(=O)NC[C@](O)(c3cc4c(c(-c5ccc(F)cc5)n3)OC[C@]4(C)C(N)=O)C(F)(F)F)[nH]c2c1` [Example 304] was tested, and the EC50 was less than 200 nM. `C[C@]1(C(N)=O)COc2c1cc([C@@](O)(CNC(=O)c1ccc(OC3CC3)c(-c3cncs3)c1)C(F)(F)F)nc2-c1ccc(F)cc1` [Example 129] was tested, and the EC50 was less than 200 nM. `C[C@@H](O)COc1ccc2cc(C(=O)NC[C@](O)(c3cc4c(c(-c5ccc(F)cc5)n3)OC[C@]4(C)C(N)=O)C(F)(F)F)cc(OC3CC3)c2n1` [Example 405] showed an EC50 greater than 200 nM. For `CCc1cnc2c(O)cc(C(=O)NC[C@](O)(c3cc4c(c(-c5ccc(F)cc5)n3)OC[C@]4(C)C(N)=O)C(F)(F)F)cc2c1` [Example 261], the EC50 was less than 200 nM. `CC(C)(O)COc1cc(C(=O)NC[C@](O)(c2cc3c(c(-c4ccc(F)cc4)n2)OC[C@]3(C)C(N)=O)C(F)(F)F)cc2cccnc12` [Example 270] was tested, and the EC50 was greater than 200 nM. `C[C@]1(C(N)=O)COc2c1cc([C@@](O)(CNC(=O)c1ccc(-c3ccncc3C(F)(F)F)c(OC3CC3)c1)C(F)(F)F)nc2-c1ccc(F)cc1` [Example 154] was tested, and the EC50 was greater than 200 nM. For `Cc1cnc2c(NC(=O)C3(C)COC3)cc(C(=O)NC[C@](O)(c3cc4c(c(-c5ccc(F)cc5)n3)OC[C@]4(C)C(N)=O)C(F)(F)F)cc2c1` [Example 620], the EC50 was less than 200 nM. Work on `Cc1cnccc1-c1cc(C(=O)NC[C@](O)(c2cc3c(c(-c4ccc(F)cc4)n2)OC[C@]3(C)C(N)=O)C(F)(F)F)ccc1OC1CC1` [Example 117] yielded an EC50 greater than 200 nM. With `COc1cc(C(=O)NC[C@](O)(c2cc3c(c(-c4ccc(F)cc4)n2)OC[C@]3(C)CNCC2CC2)C(F)(F)F)ccc1OC(F)F` [Example 41] the EC50 was greater than 200 nM. Compound `CCc1ncc(-c2cc(C(=O)NC[C@](O)(c3cc4c(c(-c5ccc(F)cc5)n3)OC[C@]4(C)C(N)=O)C(F)(F)F)ccc2OC2CC2)cn1` [Example 131] has an EC50 of less than 200 nM. For `COc1cc(C(=O)NC[C@](O)(c2cc3c(c(-c4ccc(F)cc4)n2)OC[C@]3(C)C(N)=O)C(F)(F)F)ccc1OCC(C)(C)O` [Example 647], the EC50 was less than 200 nM. With `C[C@]1(C(N)=O)COc2c1cc([C@@](O)(CNC(=O)c1ccc(OC3CC3)c(-c3cnc(C4CC4)nc3)c1)C(F)(F)F)nc2-c1ccc(F)cc1` [Example 112] the EC50 was less than 200 nM. In the case of `COc1cncc(C(=O)NC[C@](O)(c2cc3c(c(-c4ccc(F)cc4)n2)OC[C@]3(C)C(N)=O)C(F)(F)F)c1` [Example 305], the EC50 is reported as greater than 200 nM. `Cc1cnc2c(O)cc(C(=O)NC[C@](O)(c3cc4c(c(-c5ccc(F)cc5)n3)OC[C@]4(C)C(N)=O)C3CC3)cc2c1` [Example 254] showed an EC50 of less than 200 nM. Work on `Cn1c(=O)[nH]c2ccc(C(=O)NC[C@](O)(c3cc4c(c(-c5ccc(F)cc5)n3)OC[C@]4(C)C(N)=O)C(F)(F)F)cc21` [Example 326] yielded an EC50 greater than 200 nM. With `COc1cc(C(=O)NC[C@](O)(c2cc3c(c(-c4ccc(F)cc4)n2)OC[C@]3(C)C(N)=O)C(F)(F)F)ccc1OC(F)F` [Example 67] the EC50 was less than 200 nM. `C[C@]1(C(N)=O)COc2c1cc([C@@](O)(CNC(=O)c1cnn3cccnc13)C(F)(F)F)nc2-c1ccc(F)cc1` [Example 585] gave an EC50 greater than 200 nM. `Cc1ccc(-c2ccc(C(=O)NC[C@](O)(c3cc4c(c(-c5ccc(F)cc5)n3)OC[C@]4(C)C(N)=O)C(F)(F)F)cc2OC2CC2)cn1` [Example 146] gave an EC50 greater than 200 nM. Compound `C[C@]1(CNCC2CC2)COc2c1cc([C@@](O)(CNC(=O)c1ccc3[nH]c(=O)[nH]c3c1)C(F)(F)F)nc2-c1ccc(F)cc1` [Example 40] has an EC50 greater than 200 nM. `COc1cc(C(=O)NC[C@](O)(c2cc3c(c(-c4cn(-c5ccc(F)cc5)nn4)n2)OC[C@]3(C)C(N)=O)C(F)(F)F)ccc1OC1CC1` [Example 517] was tested, and the EC50 was greater than 200 nM. `COc1cc(C(=O)NC[C@](O)(c2cc3c(c(-c4ccc(F)cc4)n2)OC[C@]3(C)C(N)=O)C(F)(F)F)ccc1OCCN1CCCCC1` [Example 189] was tested, and the EC50 was greater than 200 nM. `C[C@]1(C(N)=O)COc2c1cc([C@@](O)(CNC(=O)c1ccc(-c3ncco3)c(OC3CC3)c1)C(F)(F)F)nc2-c1ccc(F)cc1` [Example 171] gave an EC50 of less than 200 nM. `COc1nc2ccc(C(=O)NC[C@](O)(c3cc4c(c(-c5ccc(F)cc5)n3)OC[C@]4(C)C(N)=O)C(F)(F)F)cc2s1` [Example 312] was tested, and the EC50 was less than 200 nM. `COc1cc(C(=O)NC[C@](O)(c2cc3c(c(-c4ccc(F)cc4)n2)OC[C@]3(C)C(=O)NC2(C(F)(F)F)CC2)C(F)(F)F)cc2cccnc12` [Example 51] was tested, and the EC50 was greater than 200 nM. In the case of `COc1ccc(C(=O)NC[C@](O)(c2cc3c(c(-c4ccc(F)cc4)n2)OC[C@]3(C)C(N)=O)C(F)(F)F)cc1Cl` [Example 330], the EC50 is reported as less than 200 nM. Work on `C[C@]1(C(=O)N2CCC(=O)C2)COc2c1cc([C@@](O)(CNC(=O)c1cc(OC3CC3)c3ncccc3c1)C(F)(F)F)nc2-c1ccc(F)cc1` [Example 556] yielded an EC50 of less than 200 nM. Work on `C[C@]1(C(N)=O)COc2c1cc([C@@](O)(CNC(=O)c1cc3cc(Cl)ccc3[nH]1)C(F)(F)F)nc2-c1ccc(F)cc1` [Example 589] yielded an EC50 greater than 200 nM. `COc1cc(C(=O)NCC(O)(c2cc3c(c(-c4ccc(F)cc4)n2)OC[C@]3(C)CNCC2CC2)C(F)(F)F)cc2cccnc12` (stereo partly drawn) [Example 25] gave an EC50 of less than 200 nM. Work on `COc1cc(C(=O)NC[C@](O)(c2cc3c(c(-c4ccc(F)cc4)n2)OC[C@]3(C)C(N)=O)C(F)(F)F)ccc1-c1ncc(C)o1` [Example 182] yielded an EC50 of less than 200 nM. For `Cn1cnc2ccc(C(=O)NC[C@](O)(c3cc4c(c(-c5ccc(F)cc5)n3)OC[C@]4(C)C(N)=O)C(F)(F)F)cc21` [Example 334], the EC50 was greater than 200 nM. `COc1cc(C(=O)NC[C@](O)(c2cc3c(c(C#Cc4ccc(F)cc4)n2)OC[C@]3(C)C(N)=O)C(F)(F)F)ccc1OC1CC1` [Example 510] was tested, and the EC50 was greater than 200 nM. With `CC(=O)NCCNC(=O)[C@@]1(C)COc2c1cc([C@@](O)(CNC(=O)c1cc(OC3CC3)c3ncccc3c1)C(F)(F)F)nc2-c1ccc(F)cc1` [Example 454] the EC50 was greater than 200 nM. In the case of `C[C@]1(C(N)=O)COc2c1cc([C@@](O)(CNC(=O)c1cnc3cnccc3c1)C(F)(F)F)nc2-c1ccc(F)cc1` [Example 244], the EC50 is reported as greater than 200 nM. Compound `CC(C)(O)c1ccc2cc(C(=O)NC[C@](O)(c3cc4c(c(-c5ccc(F)cc5)n3)OC[C@]4(C)C(N)=O)C(F)(F)F)cc(OC3CC3)c2n1` [Example 407] has an EC50 greater than 200 nM. `CNC(=O)NCCCNC(=O)[C@@]1(C)COc2c1cc([C@@](O)(CNC(=O)c1cc(OC3CC3)c3ncccc3c1)C(F)(F)F)nc2-c1ccc(F)cc1` [Example 462] gave an EC50 greater than 200 nM. With `C[C@]1(C(N)=O)COc2c1cc([C@@](O)(CNC(=O)c1ccc(OC3CC3)c(-c3ccc(C(F)(F)F)nc3)c1)C(F)(F)F)nc2-c1ccc(F)cc1` [Example 118] the EC50 was greater than 200 nM. `Cc1cnccc1-c1ccc(C(=O)NC[C@](O)(c2cc3c(c(-c4ccc(F)cc4)n2)OC[C@]3(C)C(N)=O)C(F)(F)F)cc1OC1CC1` [Example 153] showed an EC50 greater than 200 nM. Compound `C[C@]1(C(=O)N2CC[C@@H](O)C2)COc2c1cc([C@@](O)(CNC(=O)c1cc(OC3CC3)c3ncccc3c1)C(F)(F)F)nc2-c1ccc(F)cc1` [Example 468] has an EC50 greater than 200 nM. Compound `C[C@]1(CNCC2CC2)COc2c1cc([C@@](O)(CNC(=O)c1ccc(OC(F)F)c(OCC3CC3)c1)C(F)(F)F)nc2-c1ccc(F)cc1` [Example 33] has an EC50 greater than 200 nM. Work on `C[C@]1(C(N)=O)COc2c1cc([C@@](O)(CNC(=O)c1ccc3ccccc3n1)C(F)(F)F)nc2-c1ccc(F)cc1` [Example 243] yielded an EC50 greater than 200 nM. `C[C@]1(C(N)=O)COc2c1cc([C@@](O)(CNC(=O)c1cc3ccccc3[nH]1)C(F)(F)F)nc2-c1ccc(F)cc1` [Example 599] gave an EC50 greater than 200 nM. Work on `C[C@]1(C(N)=O)COc2c1cc([C@@](O)(CNC(=O)c1n[nH]c3ccncc13)C(F)(F)F)nc2-c1ccc(F)cc1` [Example 293] yielded an EC50 greater than 200 nM. `C[C@]1(C(N)=O)COc2c1cc([C@@](O)(CNC(=O)c1ccc(-c3nccs3)c(OC3CC3)c1)C(F)(F)F)nc2-c1ccc(F)cc1` [Example 173] gave an EC50 greater than 200 nM. `COc1cc(C(=O)NC[C@](O)(c2cc3c(c(C#Cc4ccc(Cl)cc4F)n2)OC[C@]3(C)C(N)=O)C(F)(F)F)ccc1OC1CC1` [Example 514] showed an EC50 greater than 200 nM. In the case of `NC(=O)C1(F)COc2c1cc([C@@](O)(CNC(=O)c1cc(OC3CC3)c3ncccc3c1)C(F)(F)F)nc2-c1ccc(F)cc1` (stereo partly drawn) [Example 665], the EC50 is reported as greater than 200 nM. In the case of `C[C@]1(C(N)=O)COc2c1cc([C@@](O)(CNC(=O)c1cc(NC(=O)[C@H]3CCN3)c3ncccc3c1)C(F)(F)F)nc2-c1ccc(F)cc1` [Example 399], the EC50 is reported as greater than 200 nM.
